Test system: bovine corneal endothelial cells
Assay: Evaluation of the endothelial cell layer in bovine corneas stored in preservation media at 4° C. (Calcein AM viability staining)
Type: cell-based
Details: DMSO at 0.5%
Protocol: Evaluations of the endothelial cell layer in bovine corneas in different media. post-incubation survival utility or usefulness for transplantation is defined as less than 3% dying and less than 1.5% missing. Missing cells leave a gap in the layer; calcein-AM staining for esterase activity is used to determine cell health. Transplant surgeons typically use missing cell counts and morphology alone as the index of health and post-incubation survival utility.
Bovine eyes were obtained from Rancho Veal, Petaluma, Calif. Two to 3 hours elapsed between death of the cattle and excision of the cornea with a 1 to 2 millimeter (mm) scleral rim from the enucleated eyes. […]
The viability of the corneal endothelium was quantified with the vital stain Calcein AM (Molecular Probes, Eugene, Oreg.). The hydrophobic and non-fluorescent Calcein AM readily diffuses across the plasma membrane and into the cytoplasm. […] The bright nuclei are easily counted. […] A Zeiss IM-35 inverted fluorescence microscope (Thornwood, N.Y.) equipped with excitation and emission filters for Green Fluorescent Protein (filter set XF100-2 from Omega Optical, Brattleboro, Vt.) was used to illuminate the half cornea. […]
For analysis, each photograph was overlaid with a sheet of transparency film. A felt-tip lab pen was used to mark cells as they were counted and scored as bright (live), dim (dying), or dark (dead or missing). […]

C[S+](C)[O-] [DMSO, dimethylsulfoxide]
effect on corneal endothelial cell survival: no effect

Source: patent US7824847B2, “Tissue preservation method with polyoxyethylene/polyoxypropylene copolymer” (Regents of the University of California, priority 2003, dated 2010)
